How the values were obtained:
A549 [1] = assay: Antiinflammatory activity in human A549 cells assessed as inhibition of IL1beta-induced IL6 production preincubated for 30 mins followed by IL1beta-stimulation and measured after 20 hrs by AlphaLisa assay; type: functional, cell-based
Glucocorticoid receptor = molecular target: T1, Glucocorticoid receptor (Homo sapiens, UniProt P04150); assay: Displacement of [3H]dexamethasone from GR in human IM9 cells after 6 hrs by scintillation counting method; type: cell-based
T1 sequence (P04150 whole entry): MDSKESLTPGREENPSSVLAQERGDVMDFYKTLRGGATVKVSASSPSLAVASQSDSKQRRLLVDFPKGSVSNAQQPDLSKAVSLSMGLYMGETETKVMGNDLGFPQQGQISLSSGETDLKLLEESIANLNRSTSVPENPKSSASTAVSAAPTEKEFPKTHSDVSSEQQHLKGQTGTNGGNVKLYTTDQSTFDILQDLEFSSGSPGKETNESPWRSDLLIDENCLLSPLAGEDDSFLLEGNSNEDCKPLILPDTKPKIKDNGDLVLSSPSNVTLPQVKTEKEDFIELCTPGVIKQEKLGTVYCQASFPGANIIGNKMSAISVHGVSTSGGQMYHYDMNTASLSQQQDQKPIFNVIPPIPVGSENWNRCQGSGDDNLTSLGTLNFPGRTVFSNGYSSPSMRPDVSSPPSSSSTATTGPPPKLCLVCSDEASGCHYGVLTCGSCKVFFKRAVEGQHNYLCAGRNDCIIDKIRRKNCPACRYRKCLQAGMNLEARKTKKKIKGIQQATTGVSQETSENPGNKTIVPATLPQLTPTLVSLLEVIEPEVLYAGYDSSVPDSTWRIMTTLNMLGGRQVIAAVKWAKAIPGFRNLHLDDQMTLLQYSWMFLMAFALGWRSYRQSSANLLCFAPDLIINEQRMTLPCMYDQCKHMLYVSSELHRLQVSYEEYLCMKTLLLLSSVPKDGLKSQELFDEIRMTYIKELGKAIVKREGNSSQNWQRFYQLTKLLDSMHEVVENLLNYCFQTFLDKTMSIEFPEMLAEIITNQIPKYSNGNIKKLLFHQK

Progesterone receptor = molecular target: T2, Progesterone receptor (Homo sapiens, UniProt P06401); assay: Displacement of [3H]progesterone from progesterone receptor in human T47D cells after 20 hrs by scintillation counting method; type: cell-based
T2 sequence (P06401 whole entry): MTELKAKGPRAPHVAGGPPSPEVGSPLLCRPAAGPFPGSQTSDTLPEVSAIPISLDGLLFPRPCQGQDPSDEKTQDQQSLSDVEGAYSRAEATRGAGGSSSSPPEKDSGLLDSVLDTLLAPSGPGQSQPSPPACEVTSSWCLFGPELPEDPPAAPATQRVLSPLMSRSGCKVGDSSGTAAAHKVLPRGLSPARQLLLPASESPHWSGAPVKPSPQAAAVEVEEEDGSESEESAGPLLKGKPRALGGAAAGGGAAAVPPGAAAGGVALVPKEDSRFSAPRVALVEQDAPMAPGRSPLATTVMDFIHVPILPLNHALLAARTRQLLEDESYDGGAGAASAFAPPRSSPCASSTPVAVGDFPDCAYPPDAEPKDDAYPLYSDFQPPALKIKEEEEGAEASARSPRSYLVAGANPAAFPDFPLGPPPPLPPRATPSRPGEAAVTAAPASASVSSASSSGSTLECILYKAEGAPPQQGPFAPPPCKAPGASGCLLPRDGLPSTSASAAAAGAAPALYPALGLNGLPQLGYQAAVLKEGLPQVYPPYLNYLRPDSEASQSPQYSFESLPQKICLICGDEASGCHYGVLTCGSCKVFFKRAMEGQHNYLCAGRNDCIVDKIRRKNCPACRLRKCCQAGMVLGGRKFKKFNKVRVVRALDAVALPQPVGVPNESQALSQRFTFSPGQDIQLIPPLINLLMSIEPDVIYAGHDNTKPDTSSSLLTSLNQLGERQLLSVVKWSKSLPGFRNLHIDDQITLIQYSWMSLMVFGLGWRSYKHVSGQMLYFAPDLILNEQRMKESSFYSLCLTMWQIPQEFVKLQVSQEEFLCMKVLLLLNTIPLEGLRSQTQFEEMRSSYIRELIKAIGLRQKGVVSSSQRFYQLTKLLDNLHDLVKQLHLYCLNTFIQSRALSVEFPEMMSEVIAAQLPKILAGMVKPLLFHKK

[2] = molecular target: T3, Glucocorticoid receptor (Homo sapiens) (UniProt P04150); assay: Potency index, ratio of prednisolone IC50 to test compound IC50 for displacement of [3H]dexamethasone from GR in human IM9 cells; type: cell-based
T3 sequence (whole entry): T1 sequence (P04150 whole entry)

Blood = assay: Antiinflammatory activity in Sprague-Dawley rat whole blood assessed as inhibition of LPS-induced TNFalpha production measured after 18 hrs by AlphaLisa assay; type: functional, tissue-based
A549 [3] = assay: Potency index, ratio of prednisolone IC50 to test compound IC50 for inhibition of IL1beta-induced IL6 production in human A549 cells; type: functional

| Structure (SMILES) | IC50 (Glucocorticoid receptor) [nM] | further results |
| --- | --- | --- |
| O[C@@]1(c2ccccc2)CCCC[C@@]12C=Cc1c(cnn1-c1ccc(F)cc1)C2 | 0.41 | IC50 (A549 [1]): 0.5 nM; IC50 (Progesterone receptor): 780 nM; Ratio IC50 [2]: 30; IC50 (Blood): 4 nM; Ratio IC50 (A549 [3]): 10 |
| O[C@@]1(Cc2ccccc2)CCCCC[C@@]12C=Cc1c(cnn1-c1ccc(F)cc1)C2 | 89 | – |
| COc1ccc(C2=CCCC[C@]23C=Cc2c(cnn2-c2ccc(F)cc2)C3)cc1 | 135 | – |
| O[C@]1(Cc2ccccc2)CCCCC[C@@]12C=Cc1c(cnn1-c1ccc(F)cc1)C2 | 130 | – |
| O[C@@]1(c2ccccc2)CCCCC[C@@]12C=Cc1c(cnn1-c1ccc(F)cc1)C2 | 6 | IC50 (Progesterone receptor): > 1000 nM |
| C#CC[C@H]1CCC[C@]2(C=Cc3c(cnn3-c3ccc(F)cc3)C2)[C@H]1O | > 1000 | – |
| O[C@]1(c2ccccc2)CCCCC[C@@]12C=Cc1c(cnn1-c1ccc(F)cc1)C2 | 9.5 | – |
| O[C@H]1C(Cc2ccccc2)(Cc2ccccc2)CCC[C@]12C=Cc1c(cnn1-c1ccc(F)cc1)C2 | > 1000 | – |
| O[C@]1(c2ccccc2)CCCC[C@@]12C=Cc1c(cnn1-c1ccc(F)cc1)C2 | 1010 | – |
| Oc1ccc(C2=CCCC[C@]23C=Cc2c(cnn2-c2ccc(F)cc2)C3)cc1 | 10 | – |
| C[C@]12C=CC(=O)C=C1CC[C@@H]1[C@@H]2[C@@H](O)C[C@@]2(C)[C@H]1CC[C@]2(O)C(=O)CO [PREDNISOLONE] | – | IC50 (A549 [1]): 5.8 nM; IC50 (Blood): 4.6 nM |
| O[C@H]1[C@@H](Cc2ccccc2)CCC[C@]12C=Cc1c(cnn1-c1ccc(F)cc1)C2 | > 1000 | – |
| Fc1ccc(-n2ncc3c2C=C[C@]2(CCCC=C2c2ccccc2)C3)cc1 | 20 | IC50 (Progesterone receptor): > 1000 nM |
| O[C@@]1(c2ccccc2)CCC[C@]12C=Cc1c(cnn1-c1ccc(F)cc1)C2 | > 1000 | – |

— ChEMBL document CHEMBL4325866, “Discovery of a subnanomolar and selective spirocyclic agonist of the glucocorticoid receptor” (Eur J Med Chem, 2019)
